Earlier results as cited in patent US20160015722A1, “TREATMENT OF ENDOMETRIOSIS” (priority 2014, published 2016).

System: FSH (Follicle Stimulating Hormone) and LH (Leutinizing Hormone) release from the pituitary
Conditions: for FSH and LH release from the pituitary gland: previous hormonal treatments of endometriosis

| Compound | FSH and LH release from the pituitary (nandrolone used alone) | FSH and LH release from the pituitary gland |
| --- | --- | --- |
| C[C@]12CC[C@H]3[C@@H](CCC4=CC(=O)CC[C@@H]43)[C@@H]1CC[C@@H]2O [Nandrolone, nandrolone] | suppresses |  |
| C#C[C@]1(O)CC[C@H]2[C@@H]3CCC4=Cc5oncc5C[C@]4(C)[C@H]3CC[C@@]21C [danazol] |  | suppress |
| luprolide acetate |  | suppress |
